pIC50: −log10 of the molar value.
Biological target: T1, squalene synthase (Homo sapiens, UniProt P37268)
T1 construct: PREPARATION OF HUMAN HEPG2 CELL ENZYME; host or cells: HepG2 (human hepatoblastoma), sonicated cell extract
T1 sequence (P37268 1-417): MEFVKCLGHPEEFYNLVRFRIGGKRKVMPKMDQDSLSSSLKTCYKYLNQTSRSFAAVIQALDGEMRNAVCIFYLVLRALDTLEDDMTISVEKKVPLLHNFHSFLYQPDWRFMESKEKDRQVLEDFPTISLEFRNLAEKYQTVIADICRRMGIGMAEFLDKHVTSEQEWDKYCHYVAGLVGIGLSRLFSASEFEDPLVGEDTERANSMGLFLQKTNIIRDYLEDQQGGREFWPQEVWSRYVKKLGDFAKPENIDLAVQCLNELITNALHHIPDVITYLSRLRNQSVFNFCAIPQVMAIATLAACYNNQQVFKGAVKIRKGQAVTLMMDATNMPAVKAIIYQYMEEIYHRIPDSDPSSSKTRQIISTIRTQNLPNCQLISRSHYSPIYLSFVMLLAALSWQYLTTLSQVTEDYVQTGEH
Assay: Squalene synthase assay with human HepG2 cell enzyme
Assay type: biochemical
Settings: HepG2 enzyme preparation, 3 μM 3H-farnesyl pyrophosphate substrate, 30° C., 20 minutes; read-out: IC50 (squalene synthase inhibition)
Procedure: The intrinsic squalene synthase inhibitory activity of the compounds of this invention was measured by the standard in vitro protocol described below:
PREPARATION OF HUMAN HEPG2 CELL ENZYME
1. Source: HEPG2 CELL LINE (Liver, hepatoblastoma, Human) ATCC No. HB 8065
Culture Medium: Minimum essential medium (MEM) with non-essential amino acids, sodium pyruvate, and 10% fetal bovine serum. The medium was changed twice weekly. […] The growth medium is prepared as listed below.
48 hrs. prior to harvest, switch cells grown in MEM with Fetal Calf serum to MEM with 10% delipidated serum.
Remove medium, wash with PBS, add fresh trypsin (0.25%)-EDTA (0.02%) with Hank's Balanced Salt solution, rinse and remove. Incubate flask at 37° C. until cells detach. Add 6 mL of MEM medium per flask to suspend cells and combine into centrifuge tube. […]
For each reaction, 55 μL of buffer mixture was taken with 5 μL of an inhibitor solution in DMSO and 10 μL of diluted enzyme (1 to 250 as described in the enzyme preparation; the final protein concentration of enzyme in the assay is 2 μg per mL.). […] 150 μL of heptane layer was then removed into a 96 deep well plate and mixed with 150 μL of scintillation fluid and the radioactivity was determined by liquid scintillation counting. […]
IC50 values were determined by plotting the log of the concentration of the test compound versus the percentage inhibition. […]

Compound: C=C(CCC(=O)C(O)C(OC(=O)/C=C/C(C)CC(C)CC)C(=O)O)C(OC(C)=O)C(C)Cc1ccccc1 (stereo not shown) [Composition A]
- pIC50: > 5.70

— patent US5362752A, “Chemical compounds” (Merck & Co., Inc., priority 1993, dated 1994)
